The record followed here is patent US20240082281A1, “ANTI-INFLAMMATORY PHYTONUTRIENTS FOR USE IN THE TREATMENT OR PREVENTION OF SYNOVITIS” (SOCIÉTÉ DES PRODUITS NESTLÉ S.A., priority 2013, published 2024).

In one assay the test system is PGE2. Briefly: PGE2 in guinea pig serum by competitive ELISA. Conditions: in diet 31 weeks; week 35; vs control group. It counts as in vivo.
Assay [1] deals with Dunkin-Hartley guinea pigs. Briefly: Spontaneous osteoarthritis in Dunkin-Hartley guinea pigs: histological OA score and synovial score (OARSI). It counts as in vivo, guinea pig. Particulars: in diet 31 weeks (oleuropein 0.025%, rutin 0.5%, curcumin 0.25%); week 35; vs control group; p<0.01. As for the experimental part: An in vivo study of spontaneous development of osteoarthritis in Dunkin-Hartley guinea pigs was performed. Sixty-five male Dunkin-Hartley guinea-pigs aged 3 weeks were obtained from Charles River Laboratories (Paris). Animals were housed 5 per cage in solid bottom cages and fed with standard guinea-pig diet and water ad libitum. All animals were allowed one week for acclimatization to housing conditions prior to phytonutrients administration. PVC pipes were added to the cages to improve housing conditions and minimize stress.
Substantially purified oleuropein (>90%) was purchased from Extrasynthese (Genay, France). Substantially purified rutin (>94%) was purchased from Sigma-Aldrich (Buchs, Switzerland).
Oleuropein, rutin and curcumin were integrated in the diet. […] Food intake was controlled at W9, W15, W21, W26 and W34 by weighing daily quantities of food added and remaining. […]
Paraffin embedded right knees were cut with a microtome (Leica) in 6 μm sections, in the central area not covered by meniscus, following the Cushin plane, as recommended by OARSI. […] Each compartment of the section (tibial median, tibial lateral, femoral median and femoral lateral) was scored by two blinded trained experts following OARSI recommendation and to assess the global cartilage score, each compartment score was added. […]
The results (mean±SD) were calculated for each parameter. […]

Another assay relates to MMP-13. Put plainly: MMP-13 mRNA expression (real-time PCR, relative to GAPDH) in bovine primary chondrocytes in alginate beads. Format: cell-based, Bos Taurus. Particulars: 1.5 μM each, 3 days. Background: Quantitative PCR measures a nucleic acid by following its amplification.
The subject of the next assay is COX-2. Briefly: COX-2 mRNA expression (real-time PCR, relative to GAPDH) in bovine primary chondrocytes in alginate beads. It counts as cell-based, Bos Taurus. Conditions: 1.5 μM each, 3 days.
The test system of another assay is ADAMTS-5. Put plainly: ADAMTS-5 mRNA expression (real-time PCR, relative to GAPDH) in bovine primary chondrocytes in alginate beads. It counts as cell-based, Bos Taurus. Particulars: 1.5 μM each, 3 days.
In assay [2] the test system is Primary osteoblasts from the calvaria of newborn Wistar rats. Put plainly: Alkaline phosphatase (ALP) activity of primary osteoblasts. It counts as cell-based, rat. Conditions: day 15; 1 μM OLP, 1 μM HTy, 10^−9 M 1,25(OH)2D3; vs C−. As for the experimental part: Alkaline phosphatase activity of osteoblasts and potentiation of effect by vitamin D were investigated. Primary osteoblasts were isolated from the calvaria of newborn Wistar rats by enzymatic digestion as described by […] et al. in 2004. During all experiments, cells were maintained in α-minimal essential medium with 10% heat-inactivated fetal bovine serum and 1% penicillin/streptomycin under conditions of 5% CO2 and 37° C. Cells were seeded on Coll-1-coated 96-well plates at a density of 3500 cells/well or in 24-well plates at a density of 3×10^4 cells/well and cultured for 2 days in α-MEM to reach confluence. Cells were then exposed to different conditions: minimal medium (C-), minimal medium containing 50 μg/ml ascorbic acid, 5 mM β-glycerophosphate (C+; optimized medium), and minimal medium supplemented with 1 μM oleuropein (OLP) and/or 1 μM hydroxytyrosol (HTy) and/or 10^-9 M 1,25 dihydroxivitamin […] dissolved in dimethylsulfoxide (DMSO) and 1,25(OH)2D3 was dissolved in ethanol. […] Enzymatic activity of alkaline phosphatase (ALP) was measured kinetically on Treatment Days 0, 5, 9, 12 and 15. […] Absorbance was measured at 405 nm and 30° C., and every 2 min 30 s for 30 min using a VarioSklan Flash microplate reader. ALP activity was expressed as micromoles of p-NPP per hour per milligram of protein. […] Data were expressed as mean±SEM. […]. […]

[3] abbreviates: disease conditions (presence of IL1a 10 ng/ml), vs IL1a.
The mark [4] stands for this setting: normal conditions (absence of IL1a), vs CTL−.

Protocol for ADAMTS-5: (§1) An in vitro study of bovine primary chondrocytes in alginate beads was performed. Substantially purified oleuropein (>98%) was purchased from Extrasynthese (Genay, France). Substantially purified hydroxytyrosol (>98%) was purchased from Extrasynthese (Genay, France). Substantially purified quercetin (>97%) was purchased from HWI Analytik GmbH (Ruelzheim, Germany).
(§2) The foot of a young cow was washed to remove soil. The skin was removed from the foot. The articulation was opened transversally. Intra articular ligaments were transected. The opened articulation was washed with phosphate buffered saline. With a scalpel blade, full thickness slices of cartilage were dissected out and collected in DMEM high glucose with 10 mM Hepes and 1% Penicillin-Streptomycin. Slices of cartilage were washed in DMEM high glucose with 10 mM Hepes and 1% Penicillin-Streptomycin. […]
(§3) Total RNA was isolated from a pool of 40 beads and isolated using RNeasy kit from Qiagen. cDNA was obtained by reverse transcription of RNA with the Primescript 1st strand cDNA Synthesis kit from Takara. mRNA expression of ADAMTS-5, COX-2, MMP-13 and GAPDH were quantified in real-time PCR (SYBR Green).
(§4) Data were expressed as fold change in gene expression compared to negative control (cells cultured in complete medium).
(§5) Data was expressed as median±S.E.Median (2 experiments of 3 replicates each). […]
Protocol for COX-2: as §1, §2, §3, §4, §5
Protocol for MMP-13: as §1, §2, §3, §4, §5
Protocol for PGE2: 6 h fasting blood was obtained in the morning, under ketamine/xylazine tranquilization, at the superficial veins at the ears, each 6 weeks: W4 (=TO), W10, W16, W22, W28. At W35, blood was collected by intracardiac puncture just before euthanasia, under general anesthesia.
PGE2 was measured in guinea pig serum using a competitive ELISA kit (Arbor Assays, USA).
The results (mean±SD) were calculated for each parameter. Following a normality test, a parametric ANOVA with Dunnett's post-test or Pearson correlation was performed on all the experiments. *p<0.05; **<0.01; ***p<0.001.

Consider `COc1cc(/C=C/C(=O)CC(=O)/C=C/c2ccc(O)c(OC)c2)ccc1O` [curcumin], for which the “PGE2 levels in plasma/serum” value in the assay on PGE2 is recorded as “only non-significant effect”. Moreover, in assay [1], the “total OA score (histological cartilage score)” value is “decreasing cartilage degradation and histological OA score”.

Take `O=c1c(O)c(-c2ccc(O)c(O)c2)oc2cc(O)cc(O)c12` [quercetin]: the “MMP-13 mRNA expression relative to GAPDH” value in the assay on MMP-13 (setting [3]) and in the assay on MMP-13 (setting [4]) was “decrease expression of MMP-13” throughout. In addition, the figures for the “COX-2 mRNA expression relative to GAPDH” value in the assay on COX-2 (setting [3]) and in the assay on COX-2 (setting [4]) were “decrease expression of COX-2” and “can reduce expression of COX-2”, respectively. Further, the “ADAMTS-5 mRNA expression relative to GAPDH” value with ADAMTS-5 (setting [3]) and with ADAMTS-5 (setting [4]) was “decrease expression of ADAMTS-5” each time.

As to `C=C1/C(=C\C=C2/CCC[C@]3(C)[C@@H]([C@H](C)CCCC(C)(C)O)CC[C@@H]23)C[C@@H](O)C[C@@H]1O` [vitamin D3, 1,25 dihydroxivitamin D3], the “alkaline phosphatase (ALP) activity / osteoblast activity” value in assay [2] was “small but statistically significant increase”.
